# From US20260146232A1, “METHODS FOR PROMOTING HOMING AND ENGRAFTMENT OF HEMATOPOIETIC STEM CELLS” (The Trustees of Indiana University, priority 2022, published 2026)
# Tests used:
# human CB CD34+ cells [1] = assay: Chemotaxis (transwell migration) assay toward SDF-1, CB CD34+ cells; format: cell-based; details: for chemotaxis of human CB CD34+ cells toward SDF-1: 20 h
# Procedure: (§1) Chemotaxis assay. Chemotaxis assays were performed in Costar 24-well trans-well plates with 6.5 mm diameter inserts with 5.0 μm pores (Corning, NY, USA). Briefly, 650 μL of IMDM medium (37° C.) that contained 0.5% bovine serum albumin (Sigma-Aldrich) and SDF-1 (0, 50 ng/mL) was added to the bottom well. Cells were suspended at 1×10^5 cells/100 μL in IMDM medium and loaded to the upper chamber of the trans-well. Trans-well plates were placed in a 37° C. incubator with 95% humidity and 5% CO2 for 4 hours. Percent migration was measured using flow cytometry with number of cells in the bottom chamber divided by number of cells placed in the upper chamber. To calculate the percent migration of CB HSCs, phenotypic HSCs was determined by surface staining and flow cytometry analysis. Human CB HSC chemotaxis was calculated as number of HSCs in the bottom chamber divided by number of HSCs loaded in the upper chamber. For AMD3100 administration, cells were treated with 5 μg/mL AMD3100 (239820, Sigma-Aldrich) for 30 min right before the chemotaxis assay.
# CXCR4 = assay: Surface CXCR4 protein level (MFI) by flow cytometry; format: cell-based, human; details: for effect of FTO inhibitor on AGII-induced CXCR4 upregulation: AGII-treated cells plus FTO inhibitor; for CXCR4 expression (MFI of cell surface CXCR4 protein level): human CB CD34+ cells treated 20 h, screen 10 μM unless otherwise stated; for effect of inhibition of mir-145 (sh-mir-145) on compound-induced CXCR4 expression: human CB CD34+ cells treated with compound and sh-mir-145
# Text: (§2) Human CD34^+ CB cell collection and culture. Umbilical CB units were supplied by Cleveland Cord Blood Bank and CordUse, Orlando, FL, USA. All studies were approved by the institutional review board of the IUSM. Mononuclear cells were isolated by density gradient centrifugation and CD34^+ cells were isolated by immunomagnetic selection kit (Miltenyi Biotec, 130-046-702). […] For molecular compound treatment, all reagents were ordered from Cayman Chemical (Ann Arbor, MI, USA). Briefly, molecular compounds were added in the initiation of human CB CD34^+ cells culture, the time and concentration of each molecular compound for cell treatment was shown in figure legends.
# Flow cytometry. Fresh or cultured CB cells were sorted for different phenotypes by using the following antibodies. Antibodies were used to detect CD34 (BV786, BD Biosciences, 744741), CD34 (FITC, BD Biosciences, 340668), CD45RA (Taxe-red, BD Biosciences, 562298), CD90 (BV421, BD Biosciences, 562556), CD49f (cy5.5, BD Biosciences, 562495), CD38 (PE, BD Biosciences, 560981). CD3 (BV421, BD Biosciences, 562427), CD33 (PE, BD Biosciences, 555450), CD19 (PE, BD Biosciences, 555413), CXCR4 (APC, BD Biosciences, 555976) and CD45 (APC, BD Biosciences, 555485). Gating strategy of phenotypic HSCs were shown in supplementary FIG. 2B.
# YTHDF2 = assay: Relative YTHDF2 expression level in human CB CD34+ cells; format: cell-based; details: human CB CD34+ cells treated 20 hours
# Text: as §2
# RNA extraction and real-time PCR. After cells were harvested by FACS, RNA was extracted by a RNeasy Mini Kit following manufacturer's protocol (Qiagen, 74106). Total RNA was reverse-transcribed by use of Superscript III kit (ThermoFisher, 18080093). Quantitative real-time PCR reactions were performed by SYBR Green PCR Master Mix (Thermo Fisher, Florence, KY, USA) and an Agilent Mx3000P QPCR System. Expression of housekeeping gene GAPDH was used as an internal control. Data are shown as relative mRNA level normalized to levels in vehicle control, set to 1.
# mir-145 = assay: Relative mir-145 expression level in human CB CD34+ cells; format: cell-based; details: human CB CD34+ cells treated 20 hours
# Text: Human CD34^+ CB cell collection and culture. Umbilical CB units were supplied by Cleveland Cord Blood Bank and CordUse, Orlando, FL, USA. All studies were approved by the institutional review board of the IUSM. Mononuclear cells were isolated by density gradient centrifugation and CD34^+ cells were isolated by immunomagnetic selection kit (Miltenyi Biotec, 130-046-702). […] For molecular compound treatment, all reagents were ordered from Cayman Chemical (Ann Arbor, MI, USA). Briefly, molecular compounds were added in the initiation of human CB CD34^+ cells culture, the time and concentration of each molecular compound for cell treatment was shown in figure legends. RNA extraction and real-time PCR. After cells were harvested by FACS, RNA was extracted by a RNeasy Mini Kit following manufacturer's protocol (Qiagen, 74106). Total RNA was reverse-transcribed by use of Superscript III kit (ThermoFisher, 18080093). Quantitative real-time PCR reactions were performed by SYBR Green PCR Master Mix (Thermo Fisher, Florence, KY, USA) and an Agilent Mx3000P QPCR System. Expression of housekeeping gene GAPDH was used as an internal control. Data are shown as relative mRNA level normalized to levels in vehicle control, set to 1.
# [2] = tested on: phenotypic HSC (CD34+ CD38- CD45RA- CD90+ CD49f+); assay: Chemotaxis (transwell migration) assay toward SDF-1, phenotypic HSCs; format: cell-based, human; details: 20 h
# Procedure: as §1
# human CB CD34+ cells [3] = assay: Long-term engraftment / limiting dilution analysis (LDA) in NSG mice; format: in vivo; details: for engraftment in NSG mice vs vehicle control (human CD45+ cells in BM): 20 h, 4 months after transplantation; for human myeloid and B-cell chimerism in BM: 10,000 CB CD34+ cells; for engraftment in secondary recipients vs vehicle: secondary NSG mice at 4 months; for SRC frequency (Poisson distribution analysis): vehicle 1/4761
# Procedure: Limiting dilution analysis (LDA). Frequency of human SCID repopulating cells (SRCs) was determined by LDA as reported before. Increasing doses of GFP overexpressing CD34^+ cells (2500, 5000 or 10000 cells) were intravenously injected into sublethally irradiated NSG recipient mice (350 cGy; 137Cs source, single dose). Four months after transplantation, the percentage of GFP^+ human CD45^+ cell chimerism was analyzed by immunostaining and flow cytometry. For long-term engraftment assays that assess the self-renewal capacity of HSC, 3×10^6 BM cells from primary recipients of the 10000-cell group were intravenously transplanted into secondary sub-lethally irradiated NSG recipient mice.
# CB CD34+ cells = assay: Colony-forming unit (CFU) assay; format: cell-based, human; details: 20 h
# human CB CD34+ cells [4] = assay: Homing assay of treated human CB CD34+ cells in NSG mice; format: in vivo; details: Raloxifene 40 μM, 20 h; 500,000 cells; 24 h after transplantation
# Procedure: Homing assay. Homing of human CB CD34^+ cells was evaluated in NSG mice. Molecular compounds treated or siRNA transfected human CB CD34+ cells (500,000 for each mouse) were intravenously injected into sub-lethally irradiated (350 cGy) NSG mice. After 24 h, these recipient mice were sacrificed, BM cells from each mouse were collected. Cells were stained with anti-human CD45 antibody, then resuspended in 1% formaldehyde buffer. Flow cytometry analysis was performed to determine the percentage of human CD45^+ cells. BM cells from non-transplanted NSG mice served as negative controls.
smiles,measurement,setting,value
c1cc(CN2CCCNCCNCCCNCC2)ccc1CN1CCCNCCNCCCNCC1 [AMD3100],blocking of Raloxifene- and Imatinib-enhanced chemotaxis toward SDF-1,human CB CD34+ cells [1]; 5 μg/mL AMD3100 for 30 min before the chemotaxis assay,fully blocked
same,blocking of AGII-enhanced migration toward SDF-1,"human CB CD34+ cells [1]; AMD3100 5 μg/mL for 30 min before assay, AGII-treated cells",blocked
same,blocking of chemotaxis of human CB CD34+ cells to SDF-1,"human CB CD34+ cells [1]; AMD3100, Control or si-YTHDF2 transfected cells",blocked
Cc1noc(C)c1-c1cc(Cl)c(Nc2ccccc2C(=O)NO)c(Cl)c1 [FB23-2],effect of FTO inhibitor on AGII-induced CXCR4 upregulation,CXCR4,repressed
CC#CCC(C)[C@H](O)/C=C/[C@@H]1[C@H]2C/C(=C/CCCC(=O)O)C[C@H]2C[C@H]1O (some centres unmarked) [Iloprost],CXCR4 expression (MFI of cell surface CXCR4 protein level),CXCR4,strongly upregulated
same,effect of inhibition of mir-145 (sh-mir-145) on compound-induced CXCR4 expression,CXCR4,did not affect
same,YTHDF2 expression,YTHDF2,downregulated
same,mir-145 expression,mir-145,strongly upregulated
Cc1ccc(NC(=O)c2ccc(CN3CCN(C)CC3)cc2)cc1Nc1nccc(-c2cccnc2)n1 [Imatinib],chemotaxis of human CB CD34+ cells toward SDF-1,human CB CD34+ cells [1]; Imatinib 10 μM,significantly enhanced
same,migration to SDF-1 in phenotypic HSC population,[2]; Imatinib 10 μM,Enhanced migration
same,engraftment in NSG mice vs vehicle control (human CD45+ cells in BM),human CB CD34+ cells [3]; Imatinib 10 μM,significantly elevated
same,human myeloid and B-cell chimerism in BM,human CB CD34+ cells [3]; Imatinib-treated cells,increased
same,engraftment in secondary recipients vs vehicle,human CB CD34+ cells [3]; Imatinib-treated cells,Enhanced engraftment
same,SRC frequency (Poisson distribution analysis),human CB CD34+ cells [3]; Imatinib-treated cells,1/1406
same,colony output vs control group,CB CD34+ cells; Imatinib 10 μM,no significant difference
Cc1ccc(Cl)c(Nc2ccccc2C(=O)O)c1Cl [Meclofenamic Acid],effect of FTO inhibitor on AGII-induced CXCR4 upregulation,CXCR4,repressed
C[C@@H]1C[C@H]2[C@@H]3CCC4=CC(=O)C=C[C@]4(C)[C@@]3(Cl)[C@@H](O)C[C@]2(C)[C@@]1(O)C(=O)CCl [Mometasone],CXCR4 expression (MFI of cell surface CXCR4 protein level),CXCR4,strongly upregulated
same,effect of inhibition of mir-145 (sh-mir-145) on compound-induced CXCR4 expression,CXCR4,did not affect
same,YTHDF2 expression,YTHDF2,downregulated
same,mir-145 expression,mir-145,strongly upregulated
O=C(c1ccc(OCCN2CCCCC2)cc1)c1c(-c2ccc(O)cc2)sc2cc(O)ccc12 [Raloxifene],chemotaxis of human CB CD34+ cells toward SDF-1,human CB CD34+ cells [1]; Raloxifene 40 μM,significantly enhanced
same,homing efficiency (human CD45+ cells in BM),human CB CD34+ cells [4],dramatically increased
same,CXCR4 expression (MFI of cell surface CXCR4 protein level),CXCR4,strongly upregulated
same,effect of inhibition of mir-145 (sh-mir-145) on compound-induced CXCR4 expression,CXCR4,significantly blocked
same,migration to SDF-1 in phenotypic HSC population,[2]; Raloxifene 40 μM,Enhanced migration
same,engraftment in NSG mice vs vehicle control (human CD45+ cells in BM),human CB CD34+ cells [3]; Raloxifene 40 μM,significantly elevated
same,human myeloid and B-cell chimerism in BM,human CB CD34+ cells [3]; Raloxifene-treated cells,increased
same,engraftment in secondary recipients vs vehicle,human CB CD34+ cells [3]; Raloxifene-treated cells,Enhanced engraftment
same,SRC frequency (Poisson distribution analysis),human CB CD34+ cells [3]; Raloxifene-treated cells,1/1818
same,colony output vs control group,CB CD34+ cells; Raloxifene 40 μM,no significant difference
same,YTHDF2 expression,YTHDF2,downregulated
same,mir-145 expression,mir-145,strongly upregulated
